Tested on: KRAS-mutant PDC multicell tumor spheroid viability
Assay: Anticancer human tumor 521955-158-R2-J5-PDC patient-derived pancreatic carcinoma cell line growth inhibition [KRAS2]
Details: for IC50: curve of first compound; for viability, T/C: stronger effect = lower value
Procedure, shortened: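 Combination screen of spheroid viability in tumor-cell co-cultures with endothelial (HUVEC) and mesenchymal stem cell stroma. Each agent was tested in half-log dilutions, topping at clinical Cmax or at 10 microM without a known Cmax.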

[1] = second compound 0.0316 µM, first compound 0.0316 µM
[2] = second compound 0.0316 µM, first compound 0.1 µM
[3] = second compound 0.0316 µM, first compound 0.316 µM
[4] = second compound 0.0316 µM, first compound 1 µM
[5] = second compound 0.0316 µM, first compound 3.16 µM
[6] = second compound 0.1 µM, first compound 0.0316 µM
[7] = second compound 0.1 µM, first compound 0.1 µM
[8] = second compound 0.1 µM, first compound 0.316 µM
[9] = second compound 0.1 µM, first compound 1 µM
[10] = second compound 0.1 µM, first compound 3.16 µM
[11] = second compound 0.316 µM, first compound 0.0316 µM
[12] = second compound 0.316 µM, first compound 0.1 µM
[13] = second compound 0.316 µM, first compound 0.316 µM
[14] = second compound 0.316 µM, first compound 1 µM
[15] = second compound 0.316 µM, first compound 3.16 µM
[16] = second compound 1 µM, first compound 0.0316 µM
[17] = second compound 1 µM, first compound 0.1 µM
[18] = second compound 1 µM, first compound 0.316 µM
[19] = second compound 1 µM, first compound 1 µM
[20] = second compound 1 µM, first compound 3.16 µM
[21] = second compound 3.16 µM, first compound 0.0316 µM
[22] = second compound 3.16 µM, first compound 0.1 µM
[23] = second compound 3.16 µM, first compound 0.316 µM
[24] = second compound 3.16 µM, first compound 1 µM
[25] = second compound 3.16 µM, first compound 3.16 µM
[26] = second compound 0.0316 µM, first compound 10 µM
[27] = second compound 0.1 µM, first compound 10 µM
[28] = second compound 0.316 µM, first compound 10 µM
[29] = second compound 1 µM, first compound 10 µM
[30] = second compound 3.16 µM, first compound 10 µM
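Further: viability read after seven days of drug exposure.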

Compound | IC50 (second compound 0.0316 µM) [nM] | IC50 (second compound 0.1 µM) [nM] | IC50 (second compound 0.316 µM) [nM] | IC50 (second compound 1 µM) [nM] | IC50 (second compound 3.16 µM) [nM] | viability, T/C [1] [%] | viability, T/C [2] [%] | viability, T/C [3] [%] | viability, T/C [4] [%] | viability, T/C [5] [%] | viability, T/C [6] [%] | viability, T/C [7] [%] | viability, T/C [8] [%] | viability, T/C [9] [%] | viability, T/C [10] [%] | viability, T/C [11] [%] | viability, T/C [12] [%] | viability, T/C [13] [%] | viability, T/C [14] [%] | viability, T/C [15] [%] | also measured
CC1COCCN1c1cc(-c2ccnn2C)c2ccnc(-c3ccn[nH]3)c2n1 (stereo not given) + C=CC(=O)N1CCN(c2nc(OCC3CCCN3C)nc3c2CCN(c2cccc4cccc(C)c24)C3)CC1CC#N | 30.6 | 29.6 | 22.9 | 17 | < 10 | 48.6 | 10.9 | 13.4 | 21.8 | 27.5 | 46.4 | 9.45 | 13.1 | 21.9 | 26.9 | 32 | 7.93 | 11.4 | 19.9 | 27.3 | viability, T/C (second compound 0.0316 µM, first compound 0.01 µM): 95.8%; viability, T/C (second compound 0.1 µM, first compound 0.01 µM): 109%; viability, T/C (second compound 0.316 µM, first compound 0.01 µM): 96%; viability, T/C (second compound 1 µM, first compound 0.01 µM): 77.8%; viability, T/C [16]: 17.8%; viability, T/C [17]: 5.2%; viability, T/C [18]: 9.79%; viability, T/C [19]: 17.1%; viability, T/C [20]: 21.1%; viability, T/C (second compound 3.16 µM, first compound 0.01 µM): 10.7%; viability, T/C [21]: 6.36%; viability, T/C [22]: 4.26%; viability, T/C [23]: 6.86%; viability, T/C [24]: 11%; viability, T/C [25]: 15.3%
CC1OCC2(CCN(c3cnc(Sc4ccnc(N)c4Cl)c(N)n3)CC2)C1N (stereo not given) + C=CC(=O)N1CCN(c2nc(OCC3CCCN3C)nc3c2CCN(c2cccc4cccc(C)c24)C3)CC1CC#N | > 10000 | > 10000 | > 10000 | > 10000 | < 31.6 | 92.9 | 79 | 75.2 | 63.5 | 60 | 99.8 | 88.1 | 74.5 | 68.6 | 63.3 | 84.5 | 84.4 | 65.4 | 59.2 | 65.9 | viability, T/C [26]: 70.8%; viability, T/C [27]: 66.6%; viability, T/C [28]: 58.4%; viability, T/C [16]: 84.8%; viability, T/C [17]: 70.7%; viability, T/C [18]: 59.2%; viability, T/C [19]: 56.9%; viability, T/C [20]: 57.4%; viability, T/C [29]: 55.5%; viability, T/C [21]: 15.1%; viability, T/C [22]: 13.1%; viability, T/C [23]: 15.4%; viability, T/C [24]: 13%; viability, T/C [25]: 5.45%; viability, T/C [30]: 5.43%
Cn1nccc1Nc1nccc(-c2cc3c(s2)C(C)(C)N(CCN2CCOCC2)C3=O)n1 + C=CC(=O)N1CCN(c2nc(OCC3CCCN3C)nc3c2CCN(c2cccc4cccc(C)c24)C3)CC1CC#N | 657 | 546 | 458 | 170 | < 31.6 | 100 | 95.3 | 64.3 | 40.6 | 29.7 | 98.2 | 76.6 | 57.1 | 44.5 | 23.8 | 78.4 | 81 | 48.3 | 41.9 | 22.1 | viability, T/C [26]: 19.1%; viability, T/C [27]: 17.1%; viability, T/C [28]: 16.8%; viability, T/C [16]: 75.5%; viability, T/C [17]: 52.1%; viability, T/C [18]: 41.6%; viability, T/C [19]: 38%; viability, T/C [20]: 23.3%; viability, T/C [29]: 17.9%; viability, T/C [21]: 11.5%; viability, T/C [22]: 10.4%; viability, T/C [23]: 6.73%; viability, T/C [24]: 1.86%; viability, T/C [25]: 0.55%; viability, T/C [30]: 0.33%

— PubChem BioAssay AID1963871 (Molecular Pharmacology Branch, DTP, NCI, 2024)
